Test results reported in ChEMBL document CHEMBL1201861, “Genomics of Drug Sensitity in Cancer screening data, Wellcome Trust Sanger Institute”.

Experiments:
Assay in all cases: cells
A498 = assay type: functional, cell-based, Homo sapiens; details: Homo sapiens, A498;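 note: growth inhibition of human A498 cells, read out with a cell viability assay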
Description: SANGER: Inhibition of human A498 cell growth in a cell viability assay.

SCH = assay type: functional, cell-based, Homo sapiens; details: Homo sapiens, SCH;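 note: growth inhibition of human SCH cells, read out in a cell viability assay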
Description: SANGER: Inhibition of human SCH cell growth in a cell viability assay.

U-87 MG = assay type: functional, cell-based, Homo sapiens, U-87MG ATCC; details: Homo sapiens, U-87 MG;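 note: growth inhibition of the cells measured with a viability assay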
Description: SANGER: Inhibition of human U-87-MG cell growth in a cell viability assay.

HL-60 = assay type: functional, cell-based, Homo sapiens; details: Homo sapiens, HL-60;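 note: growth inhibition of human HL-60 cells, read out with a cell viability assay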
Description: SANGER: Inhibition of human HL-60 cell growth in a cell viability assay.

JAR = assay type: functional, cell-based, Homo sapiens; details: Homo sapiens, JAR;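 note: growth inhibition of human JAR cells determined with a cell viability assay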
Description: SANGER: Inhibition of human JAR cell growth in a cell viability assay.

BB49-HNC = assay type: functional, cell-based, Homo sapiens; details: Homo sapiens, BB49-HNC;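 note: cell viability assay read-out, reported as inhibition of BB49-HNC cell growth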
Description: SANGER: Inhibition of human BB49-HNC cell growth in a cell viability assay.

NB13 = assay type: functional, cell-based, Homo sapiens; details: Homo sapiens, NB13;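 note: cell viability readout measuring growth inhibition of human NB13 cells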
Description: SANGER: Inhibition of human NB13 cell growth in a cell viability assay.

TK-10 = assay type: functional, cell-based, Homo sapiens; details: Homo sapiens, TK-10;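 note: growth inhibition of TK-10 cells, read out in a cell viability assay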
OCUB-M = assay type: functional, cell-based; details: Homo sapiens;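 note: growth inhibition of the cancer cell line, read out through a cell viability assay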
8-MG-BA = assay type: functional, cell-based, Homo sapiens; details: Homo sapiens, 8-MG-BA;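 note: growth inhibition of 8-MG-BA cells, read out with a cell viability assay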
Description: SANGER: Inhibition of human 8-MG-BA cell growth in a cell viability assay.

MHH-PREB-1 = assay type: functional, cell-based, Homo sapiens; details: Homo sapiens, MHH-PREB-1;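 note: cell viability assay measuring inhibition of proliferation of human MHH-PREB-1 cells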
Description: SANGER: Inhibition of human MHH-PREB-1 cell growth in a cell viability assay.

HD-MY-Z = assay type: functional, cell-based, Homo sapiens; details: Homo sapiens, HD-MY-Z;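 note: growth inhibition of HD-MY-Z cells, read out with a cell viability assay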
Description: SANGER: Inhibition of human HD-MY-Z cell growth in a cell viability assay.

ES5 = assay type: functional, cell-based, Homo sapiens; details: Homo sapiens, ES5;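 note: growth inhibition of human ES5 cells, read out by a cell viability assay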
Description: SANGER: Inhibition of human ES5 cell growth in a cell viability assay.

ETK-1 = assay type: functional, cell-based, Homo sapiens; details: Homo sapiens, ETK-1;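 note: growth inhibition of human ETK-1 cells, read out with a cell viability assay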
Description: SANGER: Inhibition of human ETK-1 cell growth in a cell viability assay.

LNCaP-Clone-FGC = assay type: functional, cell-based, Homo sapiens; details: Homo sapiens, LNCaP-Clone-FGC
Description: SANGER: Inhibition of human LNCaP-Clone-FGC cell growth in a cell viability assay.

DSH1 = assay type: functional, cell-based; details: Homo sapiens;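 note: growth inhibition of human DSH1 cells, measured with a cell viability readout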
Description: SANGER: Inhibition of human DSH1 cell growth in a cell viability assay.

PSN1 = assay type: functional, cell-based, Homo sapiens; details: Homo sapiens, PSN1;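 note: suppression of growth of human PSN1 cells, read out by a cell viability assay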
Description: SANGER: Inhibition of human PSN1 cell growth in a cell viability assay.

D283 Med = assay type: functional, cell-based, Homo sapiens; details: Homo sapiens, D283 Med
Description: SANGER: Inhibition of human D-283MED cell growth in a cell viability assay.

GT3TKB = assay type: functional, cell-based, Homo sapiens; details: Homo sapiens, GT3TKB;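 note: growth inhibition of the cell line, read out with a cell viability assay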
Description: SANGER: Inhibition of human GT3TKB cell growth in a cell viability assay.

EW-11 = assay type: functional, cell-based, Homo sapiens; details: Homo sapiens, EW-11;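 note: growth inhibition of human EW-11 cells, measured with a cell viability assay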
Description: SANGER: Inhibition of human EW-11 cell growth in a cell viability assay.

NCI-H209 = assay type: functional, cell-based, Homo sapiens; details: Homo sapiens, NCI-H209;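 note: growth inhibition of human NCI-H209 cells, measured by a cell viability assay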
Description: SANGER: Inhibition of human NCI-H209 cell growth in a cell viability assay.

MC116 = assay type: functional, cell-based, Homo sapiens; details: Homo sapiens, MC116;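 note: growth inhibition of MC116 cells, read out with a cell viability assay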
Description: SANGER: Inhibition of human MC116 cell growth in a cell viability assay.

A3-KAW = assay type: functional, cell-based, Homo sapiens; details: Homo sapiens, A3-KAW;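 note: growth inhibition of human A3-KAW cells, read out with a cell viability assay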
A704 = assay type: functional, cell-based; details: Homo sapiens;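 note: growth inhibition of human A704 cells, read out with a cell viability assay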
Description: SANGER: Inhibition of human A704 cell growth in a cell viability assay.

MEG-01 = assay type: functional, cell-based, Homo sapiens; details: Homo sapiens, MEG-01;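 note: growth inhibition of MEG-01 cells, read out by a cell viability assay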
Description: SANGER: Inhibition of human MEG-01 cell growth in a cell viability assay.

no-10 = assay type: functional, cell-based, Homo sapiens; details: Homo sapiens;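 note: growth inhibition of no-10 cells, read out with a cell viability assay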
GAK = assay type: functional, cell-based, Homo sapiens; details: Homo sapiens, GAK;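 note: cell growth inhibition read out by a cell viability assay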
Description: SANGER: Inhibition of human GAK cell growth in a cell viability assay.

KS-1 = assay type: functional, cell-based; details: Homo sapiens;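 note: growth inhibition of KS-1 cells, read out with a cell viability assay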
Description: SANGER: Inhibition of human KS-1 cell growth in a cell viability assay.

D-247MG = assay type: functional, cell-based; details: Homo sapiens
Description: SANGER: Inhibition of human D-247MG cell growth in a cell viability assay.

DU-4475 = assay type: functional, cell-based, Homo sapiens; details: Homo sapiens, DU-4475
Description: SANGER: Inhibition of human DU-4475 cell growth in a cell viability assay.

SNB-75 = assay type: functional, cell-based, Homo sapiens; details: Homo sapiens, SNB-75;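 note: cell viability assay measuring growth inhibition of human SNB-75 cells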
Description: SANGER: Inhibition of human SNB75 cell growth in a cell viability assay.

LS-411N = assay type: functional, cell-based, Homo sapiens; details: Homo sapiens, LS-411N
RPMI-8226 = assay type: functional, cell-based, Homo sapiens; details: Homo sapiens, RPMI-8226
Description: SANGER: Inhibition of human RPMI-8226 cell growth in a cell viability assay.

LB771-HNC = assay type: functional, cell-based; details: Homo sapiens;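 note: growth inhibition of LB771-HNC human cells, read out with a cell viability assay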
HT-144 = assay type: functional, cell-based, Homo sapiens; details: Homo sapiens, HT-144
Description: SANGER: Inhibition of human HT-144 cell growth in a cell viability assay.

HOP-62 = assay type: functional, cell-based, Homo sapiens; details: Homo sapiens, HOP-62;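 note: cell growth inhibition determined with a viability assay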
BB65-RCC = assay type: functional, cell-based, Homo sapiens; details: Homo sapiens, BB65-RCC;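 note: growth inhibition of the cell line, measured with a cell viability assay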
Description: SANGER: Inhibition of human BB65-RCC cell growth in a cell viability assay.

NOMO-1 = assay type: functional, cell-based, Homo sapiens; details: Homo sapiens, NOMO-1;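 note: growth inhibition of human NOMO-1 cells measured by a cell viability assay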
Description: SANGER: Inhibition of human NOMO-1 cell growth in a cell viability assay.

SJSA-1 = assay type: functional, cell-based, Homo sapiens; details: Homo sapiens, SJSA-1;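 note: growth inhibition of human SJSA-1 cells, read out through a cell viability measurement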
Description: SANGER: Inhibition of human SJSA-1 cell growth in a cell viability assay.

C2BBe1 = assay type: functional, cell-based, Homo sapiens; details: Homo sapiens, C2BBe1;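 note: growth inhibition of C2BBe1 cells, read out through a viability assay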
Description: SANGER: Inhibition of human C2BBe1 cell growth in a cell viability assay.

SK-PN-DW = assay type: functional, cell-based, Homo sapiens; details: Homo sapiens, SK-PN-DW;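 note: growth inhibition measured with a viability assay on these cells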
Description: SANGER: Inhibition of human SK-PN-DW cell growth in a cell viability assay.

KP-N-YS = assay type: functional, cell-based, Homo sapiens; details: Homo sapiens, KP-N-YS;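 note: cell viability assay measuring inhibition of cell line growth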
Description: SANGER: Inhibition of human KP-N-YS cell growth in a cell viability assay.

SW 962 = assay type: functional, cell-based, Homo sapiens; details: Homo sapiens, SW 962;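 note: growth inhibition of human SW962 cells, read out by a cell viability assay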
BB30-HNC = assay type: functional, cell-based, Homo sapiens; details: Homo sapiens, BB30-HNC;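 note: growth inhibition of the cultured cell line, read out by a cell viability assay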
Description: SANGER: Inhibition of human BB30-HNC cell growth in a cell viability assay.

MMAC-SF = assay type: functional, cell-based; details: Homo sapiens;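 note: growth inhibition of human MMAC-SF cells, read out with a cell viability assay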
TE-1 = assay type: functional, cell-based, Homo sapiens; details: Homo sapiens, TE-1;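 note: growth inhibition of the human TE-1 cell line, read out with a cell viability assay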
ES4 = assay type: functional, cell-based, Homo sapiens; details: Homo sapiens, ES4;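 note: growth inhibition of human ES4 cells, read out by a cell viability assay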
MLMA = assay type: functional, cell-based, Homo sapiens; details: Homo sapiens, MLMA;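 note: growth inhibition of MLMA cells (human), determined through a cell viability readout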
Description: SANGER: Inhibition of human MLMA cell growth in a cell viability assay.

IST-MEL1 = assay type: functional, cell-based, Homo sapiens; details: Homo sapiens, IST-MEL1;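 note: growth inhibition of the cell line, read out with a cell viability assay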
Description: SANGER: Inhibition of human IST-MEL1 cell growth in a cell viability assay.

Becker = assay type: functional, cell-based, Homo sapiens; details: Homo sapiens, Becker;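 note: growth inhibition of Becker cells, read out with a cell viability assay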
Description: SANGER: Inhibition of human Becker cell growth in a cell viability assay.

NC(=O)c1cccc(-c2cc(Nc3ccc(OC(F)(F)F)cc3)ncn2)c1
IC50 (A498): > 1280 nM | IC50 (SCH): > 1280 nM | IC50 (U-87 MG): > 1280 nM | IC50 (HL-60): > 1280 nM | IC50 (JAR): > 1280 nM | IC50 (BB49-HNC): > 1280 nM | IC50 (NB13): > 1280 nM | IC50 (TK-10): > 1280 nM | IC50 (OCUB-M): > 1280 nM | IC50 (8-MG-BA): > 1280 nM | IC50 (MHH-PREB-1): > 1280 nM | IC50 (HD-MY-Z): > 1280 nM | IC50 (ES5): > 1280 nM | IC50 (ETK-1): > 1280 nM | IC50 (LNCaP-Clone-FGC): > 1.28 µM | IC50 (DSH1): > 1280 nM | IC50 (PSN1): > 1280 nM | IC50 (D283 Med): > 1280 nM | IC50 (GT3TKB): > 1.28 µM | IC50 (EW-11): > 1280 nM | IC50 (NCI-H209): > 1280 nM | IC50 (MC116): > 1280 nM | IC50 (A3-KAW): > 1280 nM | IC50 (A704): > 1280 nM | IC50 (MEG-01): 503 nM | IC50 (no-10): > 1280 nM | IC50 (GAK): > 1280 nM | IC50 (KS-1): > 1280 nM | IC50 (D-247MG): > 1280 nM | IC50 (DU-4475): > 1280 nM | IC50 (SNB-75): > 1280 nM | IC50 (LS-411N): > 1280 nM | IC50 (RPMI-8226): > 1280 nM | IC50 (LB771-HNC): > 1280 nM | IC50 (HT-144): > 1280 nM | IC50 (HOP-62): > 1280 nM | IC50 (BB65-RCC): > 1280 nM | IC50 (NOMO-1): > 1280 nM | IC50 (SJSA-1): > 1280 nM | IC50 (C2BBe1): > 1280 nM | IC50 (SK-PN-DW): > 1280 nM | IC50 (KP-N-YS): > 1280 nM | IC50 (SW 962): > 1280 nM | IC50 (BB30-HNC): > 1280 nM | IC50 (MMAC-SF): > 1280 nM | IC50 (TE-1): > 1280 nM | IC50 (ES4): > 1280 nM | IC50 (MLMA): > 1280 nM | IC50 (IST-MEL1): > 1280 nM | IC50 (Becker): > 1.28 µM

Nc1ccccc1NC(=O)c1ccc(CNC(=O)OCc2cccnc2)cc1 [ENTINOSTAT]
IC50 (SCH): 403 nM | IC50 (U-87 MG): 3040 nM | IC50 (HL-60): 543 nM | IC50 (JAR): 878 nM | IC50 (BB49-HNC): 2920 nM | IC50 (NB13): 668 nM | IC50 (TK-10): 1830 nM | IC50 (OCUB-M): 1210 nM | IC50 (8-MG-BA): 1290 nM | IC50 (MHH-PREB-1): 607 nM | IC50 (HD-MY-Z): 1750 nM | IC50 (ES5): > 5000 nM | IC50 (ETK-1): 1790 nM | IC50 (LNCaP-Clone-FGC): > 5 µM | IC50 (DSH1): 287 nM | IC50 (PSN1): 1420 nM | IC50 (D283 Med): > 5000 nM | IC50 (GT3TKB): 4.33 µM | IC50 (EW-11): > 5000 nM | IC50 (NCI-H209): 406 nM | IC50 (MC116): 1440 nM | IC50 (A3-KAW): 176 nM | IC50 (MEG-01): 1220 nM | IC50 (no-10): 1230 nM | IC50 (KS-1): 881 nM | IC50 (D-247MG): > 5000 nM | IC50 (DU-4475): 587 nM | IC50 (SNB-75): > 5000 nM | IC50 (LS-411N): 1310 nM | IC50 (RPMI-8226): 3140 nM | IC50 (LB771-HNC): > 5000 nM | IC50 (HT-144): 303 nM | IC50 (HOP-62): 484 nM | IC50 (BB65-RCC): 3980 nM | IC50 (NOMO-1): 811 nM | IC50 (SJSA-1): 1520 nM | IC50 (C2BBe1): > 5000 nM | IC50 (SK-PN-DW): 978 nM | IC50 (KP-N-YS): > 5000 nM | IC50 (SW 962): > 5000 nM | IC50 (BB30-HNC): 1390 nM | IC50 (MMAC-SF): > 5000 nM | IC50 (TE-1): 553 nM | IC50 (ES4): 859 nM | IC50 (MLMA): 1880 nM | IC50 (IST-MEL1): 1180 nM | IC50 (Becker): 4.37 µM

Cc1ccc(NC(=O)c2ccc(CN3CCN(C)CC3)cc2)cc1Nc1nccc(-c2cccnc2)n1 [IMATINIB]
IC50 (A498): > 2000 nM | IC50 (U-87 MG): > 2000 nM | IC50 (HL-60): > 2000 nM | IC50 (JAR): > 2000 nM | IC50 (BB49-HNC): > 2000 nM | IC50 (NB13): > 2000 nM | IC50 (TK-10): > 2000 nM | IC50 (OCUB-M): > 2000 nM | IC50 (8-MG-BA): > 2000 nM | IC50 (MHH-PREB-1): > 2000 nM | IC50 (HD-MY-Z): > 2000 nM | IC50 (ES5): > 2000 nM | IC50 (ETK-1): > 2000 nM | IC50 (DSH1): > 2000 nM | IC50 (PSN1): > 2000 nM | IC50 (D283 Med): > 2000 nM | IC50 (GT3TKB): > 2 µM | IC50 (EW-11): > 2000 nM | IC50 (NCI-H209): > 2000 nM | IC50 (MC116): > 2000 nM | IC50 (A3-KAW): > 2000 nM | IC50 (A704): > 2000 nM | IC50 (MEG-01): 89.2 nM | IC50 (no-10): > 2000 nM | IC50 (GAK): […] | IC50 (KS-1): > 2000 nM | IC50 (D-247MG): > 2000 nM | IC50 (DU-4475): > 2000 nM | IC50 (SNB-75): > 2000 nM | IC50 (LS-411N): > 2000 nM | IC50 (RPMI-8226): > 2000 nM | IC50 (LB771-HNC): > 2000 nM | IC50 (HT-144): > 2000 nM | IC50 (HOP-62): > 2000 nM | IC50 (BB65-RCC): > 2000 nM | IC50 (NOMO-1): > 2000 nM | IC50 (SJSA-1): > 2000 nM | IC50 (C2BBe1): > 2000 nM | IC50 (SK-PN-DW): > 2000 nM | IC50 (KP-N-YS): > 2000 nM | IC50 (SW 962): > 2000 nM | IC50 (BB30-HNC): > 2000 nM | IC50 (MMAC-SF): > 2000 nM | IC50 (TE-1): > 2000 nM | IC50 (ES4): > 2000 nM | IC50 (MLMA): > 2000 nM | IC50 (IST-MEL1): > 2000 nM | IC50 (Becker): > 2 µM
